# Measured values from ChEMBL document CHEMBL1649565, “Besifloxacin, a novel fluoroquinolone, has broad-spectrum in vitro activity against aerobic and anaerobic bacteria” (Antimicrob Agents Chemother, 2009).
# Activity calls are given as the source filed them. The calls are words filed in the database; no cut-off is given here.
# Columns and labels:
# Bacteroides fragilis [1] = assay: Antibacterial activity against Bacteroides fragilis by CLSI M11-A7 method; assay type: functional
# Clostridium perfringens = assay: Antibacterial activity against Clostridium perfringens by CLSI M11-A7 method; assay type: functional
# Fusobacterium sp. [2] = assay: Antibacterial activity against Fusobacterium sp. by CLSI M11-A7 method; assay type: functional
# Peptostreptococcus sp. [3] = assay: Antibacterial activity against Peptostreptococcus sp. by CLSI M11-A7 method; assay type: functional
# Prevotella sp. [4] = assay: Antibacterial activity against Prevotella sp. by CLSI M11-A7 method; assay type: functional
# Cutibacterium acnes [5] = assay: Antibacterial activity against Propionibacterium acnes by CLSI M11-A7 method; assay type: functional
# Bacteroides fragilis [6] = assay: Antibacterial activity against Bacteroides fragilis assessed as percent susceptible isolates by CLSI M11-A7 method; assay type: functional
# Fusobacterium sp. [7] = assay: Antibacterial activity against Fusobacterium sp. assessed as percent susceptible isolates by CLSI M11-A7 method; assay type: functional
# Peptostreptococcus sp. [8] = assay: Antibacterial activity against Peptostreptococcus sp. assessed as percent susceptible isolates by CLSI M11-A7 method; assay type: functional
# Prevotella sp. [9] = assay: Antibacterial activity against Prevotella sp. assessed as percent susceptible isolates by CLSI M11-A7 method; assay type: functional
# Cutibacterium acnes [10] = assay: Antibacterial activity against Propionibacterium acnes assessed as percent susceptible isolates by CLSI M11-A7 method; assay type: functional
# Acinetobacter baumannii [11] = assay: Antibacterial activity against Acinetobacter baumannii by CLSI M7-A7 method; assay type: functional
# [12] = system: Acinetobacter calcoaceticus; assay: Antibacterial activity against Acinetobacter calcoaceticus by CLSI M7-A7 method; assay type: functional
# Acinetobacter lwoffii [13] = assay: Antibacterial activity against Acinetobacter lwoffii by CLSI M7-A7 method; assay type: functional
# Citrobacter freundii [14] = assay: Antibacterial activity against Citrobacter freundii by CLSI M7-A7 method; assay type: functional
# Klebsiella aerogenes [15] = assay: Antibacterial activity against Enterobacter aerogenes by CLSI M7-A7 method; assay type: functional
# Enterobacter cloacae [16] = assay: Antibacterial activity against Enterobacter cloacae by CLSI M7-A7 method; assay type: functional
# Klebsiella pneumoniae [17] = assay: Antibacterial activity against Klebsiella pneumoniae by CLSI M7-A7 method; assay type: functional
# Proteus mirabilis [18] = assay: Antibacterial activity against Proteus mirabilis by CLSI M7-A7 method; assay type: functional
# Proteus vulgaris [19] = assay: Antibacterial activity against Proteus vulgaris by CLSI M7-A7 method; assay type: functional
# Pseudomonas aeruginosa [20] = assay: Antibacterial activity against ciprofloxacin-susceptible Pseudomonas aeruginosa by CLSI M7-A7 method; assay type: functional
# Pseudomonas aeruginosa [21] = assay: Antibacterial activity against non-ciprofloxacin-susceptible Pseudomonas aeruginosa by CLSI M7-A7 method; assay type: functional
# Serratia marcescens [22] = assay: Antibacterial activity against Serratia marcescens by CLSI M7-A7 method; assay type: functional
# [23] = system: Stenotrophomonas maltophilia; assay: Antibacterial activity against non-levofloxacin susceptible Stenotrophomonas maltophilia by CLSI M7-A7 method; assay type: functional
# Acinetobacter baumannii [24] = assay: Antibacterial activity against Acinetobacter baumannii assessed as percent susceptible isolates by CLSI M7-A7 method; assay type: functional
# [25] = system: Acinetobacter calcoaceticus; assay: Antibacterial activity against Acinetobacter calcoaceticus assessed as percent susceptible isolates by CLSI M7-A7 method; assay type: functional
# Acinetobacter lwoffii [26] = assay: Antibacterial activity against Acinetobacter lwoffii assessed as percent susceptible isolates by CLSI M7-A7 method; assay type: functional
# Citrobacter freundii [27] = assay: Antibacterial activity against Citrobacter freundii assessed as percent susceptible isolates by CLSI M7-A7 method; assay type: functional
# Klebsiella aerogenes [28] = assay: Antibacterial activity against Enterobacter aerogenes assessed as percent susceptible isolates by CLSI M7-A7 method; assay type: functional
# Enterobacter cloacae [29] = assay: Antibacterial activity against Enterobacter cloacae assessed as percent susceptible isolates by CLSI M7-A7 method; assay type: functional
# Klebsiella pneumoniae [30] = assay: Antibacterial activity against Klebsiella pneumoniae assessed as percent susceptible isolates by CLSI M7-A7 method; assay type: functional
# Proteus mirabilis [31] = assay: Antibacterial activity against Proteus mirabilis assessed as percent susceptible isolates by CLSI M7-A7 method; assay type: functional
# Proteus vulgaris [32] = assay: Antibacterial activity against Proteus vulgaris assessed as percent susceptible isolates by CLSI M7-A7 method; assay type: functional
# Pseudomonas aeruginosa [33] = assay: Antibacterial activity against ciprofloxacin-susceptible Pseudomonas aeruginosa assessed as percent susceptible isolates by CLSI M7-A7 method; assay type: functional
# Pseudomonas aeruginosa [34] = assay: Antibacterial activity against non-ciprofloxacin-susceptible Pseudomonas aeruginosa assessed as percent susceptible isolates by CLSI M7-A7 method; assay type: functional
# Serratia marcescens [35] = assay: Antibacterial activity against levofloxacin susceptible Serratia marcescens assessed as percent susceptible isolates by CLSI M7-A7 method; assay type: functional
# [36] = system: Stenotrophomonas maltophilia; assay: Antibacterial activity against non-levofloxacin susceptible Stenotrophomonas maltophilia assessed as percent susceptible isolates by CLSI M7-A7 method; assay type: functional
# [37] = system: Stenotrophomonas maltophilia; assay: Antibacterial activity against levofloxacin-susceptible Stenotrophomonas maltophilia by CLSI M7-A7 method; assay type: functional
# [38] = system: Stenotrophomonas maltophilia; assay: Antibacterial activity against levofloxacin-susceptible Stenotrophomonas maltophilia assessed as assessed as percent susceptible isolates by CLSI M7-A7 method; assay type: functional
# Staphylococcus aureus [39] = assay: Antibacterial activity against ciprofloxacin-susceptible and methicillin-resistant Staphylococcus aureus by CLSI M100-S18 method; assay type: functional
# Staphylococcus aureus [40] = assay: Antibacterial activity against non-ciprofloxacin-susceptible and methicillin-susceptible Staphylococcus aureus by CLSI M100-S18 method; assay type: functional
# [41] = system: Staphylococcus epidermidis; assay: Antibacterial activity against ciprofloxacin-susceptible and methicillin-resistant Staphylococcus epidermidis by CLSI M100-S18 method; assay type: functional
# [42] = system: Staphylococcus epidermidis; assay: Antibacterial activity against non-ciprofloxacin-susceptible and methicillin-susceptible Staphylococcus epidermidis by CLSI M100-S18 method; assay type: functional
# [43] = system: Staphylococcus haemolyticus; assay: Antibacterial activity against Staphylococcus haemolyticus by CLSI M100-S18 method; assay type: functional
# Staphylococcus hominis [44] = assay: Antibacterial activity against Staphylococcus hominis by CLSI M100-S18 method; assay type: functional
# [45] = system: Staphylococcus lugdunensis; assay: Antibacterial activity against Staphylococcus lugdunensis by CLSI M100-S18 method; assay type: functional
# [46] = system: Staphylococcus saprophyticus; assay: Antibacterial activity against Staphylococcus saprophyticus by CLSI M100-S18 method; assay type: functional
# Staphylococcus warneri [47] = assay: Antibacterial activity against Staphylococcus warneri by CLSI M100-S18 method; assay type: functional
# Moraxella catarrhalis = assay: Antibacterial activity against Moraxella catarrhalis by CLSI M7-A7 method; assay type: functional
# Staphylococcus aureus [48] = assay: Antibacterial activity against ciprofloxacin-susceptible and methicillin-resistant Staphylococcus aureus assessed as percent susceptible isolates by CLSI M100-S18 method; assay type: functional
# Staphylococcus aureus [49] = assay: Antibacterial activity against non-ciprofloxacin-susceptible and methicillin-susceptible Staphylococcus aureus assessed as percent susceptible isolates by CLSI M100-S18 method; assay type: functional
# [50] = system: Staphylococcus epidermidis; assay: Antibacterial activity against ciprofloxacin-susceptible and methicillin-resistant Staphylococcus epidermidis assessed as percent susceptible isolates by CLSI M100-S18 method; assay type: functional
# [51] = system: Staphylococcus epidermidis; assay: Antibacterial activity against non-ciprofloxacin-susceptible and methicillin-susceptible Staphylococcus epidermidis assessed as percent susceptible isolates by CLSI M100-S18 method; assay type: functional
# [52] = system: Staphylococcus haemolyticus; assay: Antibacterial activity against Staphylococcus haemolyticus assessed as percent susceptible isolates by CLSI M100-S18 method; assay type: functional
# Staphylococcus hominis [53] = assay: Antibacterial activity against Staphylococcus hominis assessed as percent susceptible isolates by CLSI M100-S18 method; assay type: functional
# [54] = system: Staphylococcus lugdunensis; assay: Antibacterial activity against Staphylococcus lugdunensis assessed as percent susceptible isolates by CLSI M100-S18 method; assay type: functional
# [55] = system: Staphylococcus saprophyticus; assay: Antibacterial activity against Staphylococcus saprophyticus assessed as percent susceptible isolates by CLSI M100-S18 method; assay type: functional
# Staphylococcus warneri [56] = assay: Antibacterial activity against Staphylococcus warneri assessed as percent susceptible isolates by CLSI M100-S18 method; assay type: functional
# [57] = system: Staphylococcus epidermidis
# [58] = system: Staphylococcus epidermidis; remark: listed apart in the source
compound,measurement,setting,value
CCC[C@@H]1C[C@@H](C(=O)N[C@@H]([C@H]2O[C@H](SC)[C@H](O)[C@@H](O)[C@H]2O)[C@H](C)Cl)N(C)C1 [CLINDAMYCIN],MIC50,Bacteroides fragilis [1],2 µg/mL
same,MIC90,Bacteroides fragilis [1],> 8 µg/mL
same,MIC50,Clostridium perfringens,2 µg/mL
same,MIC90,Clostridium perfringens,4 µg/mL
same,MIC,Fusobacterium sp. [2],0.06 µg/mL
same,MIC50,Fusobacterium sp. [2],0.06 µg/mL
same,MIC90,Fusobacterium sp. [2],2 µg/mL
same,MIC50,Peptostreptococcus sp. [3],0.25 µg/mL
same,MIC90,Peptostreptococcus sp. [3],> 8 µg/mL
same,MIC,Prevotella sp. [4],≤ 0.03 µg/mL
same,MIC50,Prevotella sp. [4],≤ 0.03 µg/mL
same,MIC90,Prevotella sp. [4],> 8 µg/mL
same,MIC50,Cutibacterium acnes [5],0.06 µg/mL
same,MIC90,Cutibacterium acnes [5],0.12 µg/mL
same,Activity,Bacteroides fragilis [6],65%
same,Activity,Fusobacterium sp. [7],95.2%
same,Activity,Peptostreptococcus sp. [8],88.5%
same,Activity,Prevotella sp. [9],85%
same,Activity,Cutibacterium acnes [10],100%
C[C@@H](O)[C@H]1C(=O)N2C(C(=O)O)=C(SCCNC=N)C[C@H]12 [IMIPENEM ANHYDROUS],MIC50,Acinetobacter baumannii [11],2 µg/mL
same,MIC90,Acinetobacter baumannii [11],> 8 µg/mL
same,MIC50,[12],1 µg/mL
same,MIC90,[12],> 64 µg/mL
same,MIC50,Acinetobacter lwoffii [13],0.25 µg/mL
same,MIC90,Acinetobacter lwoffii [13],8 µg/mL
same,MIC50,Citrobacter freundii [14],0.5 µg/mL
same,MIC90,Citrobacter freundii [14],8 µg/mL
same,MIC50,Klebsiella aerogenes [15],0.5 µg/mL
same,MIC90,Klebsiella aerogenes [15],1 µg/mL
same,MIC50,Enterobacter cloacae [16],0.5 µg/mL
same,MIC90,Enterobacter cloacae [16],8 µg/mL
same,MIC50,Klebsiella pneumoniae [17],0.25 µg/mL
same,MIC90,Klebsiella pneumoniae [17],0.5 µg/mL
same,MIC50,Proteus mirabilis [18],1 µg/mL
same,MIC90,Proteus mirabilis [18],2 µg/mL
same,MIC50,Proteus vulgaris [19],1 µg/mL
same,MIC90,Proteus vulgaris [19],2 µg/mL
same,MIC50,Pseudomonas aeruginosa [20],0.5 µg/mL
same,MIC90,Pseudomonas aeruginosa [20],1 µg/mL
same,MIC50,Pseudomonas aeruginosa [21],1 µg/mL
same,MIC90,Pseudomonas aeruginosa [21],> 64 µg/mL
same,MIC50,Serratia marcescens [22],2 µg/mL
same,MIC90,Serratia marcescens [22],4 µg/mL
same,MIC,[23],1 µg/mL
same,Activity,Acinetobacter baumannii [24],54.7%
same,Activity,[25],77.8%
same,Activity,Acinetobacter lwoffii [26],86%
same,Activity,Citrobacter freundii [27],87%
same,Activity,Klebsiella aerogenes [28],88%
same,Activity,Enterobacter cloacae [29],88%
same,Activity,Klebsiella pneumoniae [30],93%
same,Activity,Proteus mirabilis [31],92%
same,Activity,Proteus vulgaris [32],98%
same,Activity,Pseudomonas aeruginosa [33],97.1%
same,Activity,Pseudomonas aeruginosa [34],64.6%
same,Activity,Serratia marcescens [35],91%
same,Activity,[36],22.9%
same,MIC,[37],0.25 µg/mL
same,Activity,[38],38.5%
Cc1ncc([N+](=O)[O-])n1CCO [METRONIDAZOLE],MIC,Bacteroides fragilis [1],2 µg/mL
same,MIC50,Bacteroides fragilis [1],2 µg/mL
same,MIC90,Bacteroides fragilis [1],2 µg/mL
same,MIC50,Clostridium perfringens,2 µg/mL
same,MIC90,Clostridium perfringens,4 µg/mL
same,MIC50,Fusobacterium sp. [2],0.25 µg/mL
same,MIC90,Fusobacterium sp. [2],1 µg/mL
same,MIC50,Peptostreptococcus sp. [3],0.5 µg/mL
same,MIC90,Peptostreptococcus sp. [3],1 µg/mL
same,MIC50,Prevotella sp. [4],4 µg/mL
same,MIC90,Prevotella sp. [4],4 µg/mL
same,MIC,Cutibacterium acnes [5],> 16 µg/mL
same,MIC50,Cutibacterium acnes [5],> 16 µg/mL
same,MIC90,Cutibacterium acnes [5],> 16 µg/mL
same,Activity,Bacteroides fragilis [6],100%
same,Activity,Fusobacterium sp. [7],100%
same,Activity,Peptostreptococcus sp. [8],98.1%
same,Activity,Prevotella sp. [9],100%
same,Activity,Cutibacterium acnes [10],0%
Cc1onc(-c2ccccc2)c1C(=O)N[C@@H]1C(=O)N2[C@@H]1SC(C)(C)[C@@H]2C(=O)O [OXACILLIN],MIC50,Staphylococcus aureus [39],0.25 µg/mL
same,MIC90,Staphylococcus aureus [39],> 8 µg/mL
same,MIC50,Staphylococcus aureus [40],> 8 µg/mL
same,MIC90,Staphylococcus aureus [40],> 8 µg/mL
same,MIC50,[41],0.12 µg/mL
same,MIC50,[42],1 µg/mL
same,MIC50,[43],> 8 µg/mL
same,MIC90,[43],> 8 µg/mL
same,MIC50,Staphylococcus hominis [44],> 8 µg/mL
same,MIC90,Staphylococcus hominis [44],> 8 µg/mL
same,MIC50,[45],0.5 µg/mL
same,MIC90,[45],> 8 µg/mL
same,MIC50,[46],0.5 µg/mL
same,MIC90,[46],1 µg/mL
same,MIC50,Staphylococcus warneri [47],0.5 µg/mL
same,MIC90,Staphylococcus warneri [47],> 8 µg/mL
same,MIC50,Moraxella catarrhalis,4 µg/mL
same,MIC90,Moraxella catarrhalis,8 µg/mL
same,Activity,Staphylococcus aureus [48],78.9%
same,Activity,Staphylococcus aureus [49],36.4%
same,Activity,[50],55.6%
same,Activity,[51],16.7%
same,Activity,[52],31.7%
same,Activity,Staphylococcus hominis [53],16%
same,Activity,[54],60%
same,Activity,[55],9.9%
same,Activity,Staphylococcus warneri [56],46%
same,MIC90,[57],inactive
same,MIC90,[58],inactive
